Source: patent US20070105792A1, “Administration Of DNA Methylation Inhibitors For Treating Epigenetic Diseases” (priority 2005, published 2007)
Marks after values point to notes of the source that are not given here.

Assays:
[1] = system: cytidine deaminases; conditions: enzymatic degradation by cytidine deaminases, particularly in the small intestine; cited from earlier work
[2] = system: adult patients with MDS; conditions: about; after a decitabine cycle; cited from earlier work
[3] = system: adult patients with MDS; assay: Randomized open-label controlled clinical study of decitabine plus supportive care in MDS patients; type: in vivo, human
Description: A randomized open-label, controlled clinical study at 23 sites evaluated 170 adult patients with MDS meeting French-American-British (FAB) classification and International Prognostic Scoring System (IPSS) High-Risk, Intermediate-2 and Intermediate-1 prognostic scores.
Eighty-nine patients were randomized to decitabine therapy plus supportive care (only 83 received drug), and 81 to Supportive Care (SC) alone. Patients with Acute Myeloid Leukemia (AML) were not intended to be included.
Decitabine was supplied as a lyophilized powder, 50 mg in 20 mL vials, for reconstitution and injection. Decitabine was reconstituted with 10 mL of Sterile Water for Injection USP to yield a solution of 5 mg/mL decitabine and 6.8 mg/mL KH2PO4. The reconstituted solution was further diluted for intravenous infusion with prechilled (2-8° C.) 0.9% Sodium Chloride solution USP. To slow degradation of study drug, infusion solution was refrigerated at 2-8° C. until administration, for a maximum of 10 hours.
Patients randomized to the decitabine arm received decitabine intravenously infused at a dose of 15 mg/m^2 over a three-hour period, every eight hours, for 3 consecutive days (1 cycle). Each administration of decitabine at a dose of 15 mg/m^2 infused over a three-hour period was a continuous infusion without changing the infusion bag. The total amount of decitabine per day was 45 mg/m^2; the total dose per cycle was 135 mg/m^2. […] For patients with inadequate counts 6 weeks after treatment, the study protocol specified that blood counts be repeated at least weekly during the following two-week interval, and that a reduced-dose cycle (11 mg/m^2 over a three-hour period, every eight hours, for 3 consecutive days) was to be administered if blood counts recovered to within acceptable limits (as defined above) between week 6 and 8.
Delayed myelotoxicity, with a neutrophil nadir reached between about day 18-24, is the primary toxicity of decitabine. Cytopenias, however, are also a hallmark of the MDS disease process, making it difficult to distinguish between treatment-related neutropenia and disease progression. Accordingly, the protocol required that patients showing persistent neutropenia (ANC <1,000/μL) or thrombocytopenia (platelets <50,000/μL) beyond 8 weeks following a decitabine cycle undergo bone marrow aspiration and biopsy. Upon a finding of no disease progression (i.e. only bone marrow aplasia), blood counts were to be monitored for an additional two weeks, and a reduced-dose cycle (as defined above) was to be administered if blood counts recovered to within acceptable limits (as defined above) during weeks 8-10. Patients showing neutropenia or thrombocytopenia beyond 10 weeks were to receive no further decitabine treatment.
Supportive care consisted of blood and blood product transfusions, prophylactic antibiotics, and hematopoietic growth factors. Co-primary endpoints of the study were overall response rate (CR+PR) and time to AML or death. Responses were classified with the MDS International Working Group (IWG) criteria; patients were required to be RBC and platelet transfusion independent during the time of response.

[4] = ITT, N = 89, 15 mg/m^2 3 hr iv infusion every 8 hrs for 3 days
[5] = ITT, N = 89, listed as decitabine
[6] = patients evaluable for response (confirmed MDS at baseline, at least 2 courses)
[7] = patients with adjudicated baseline diagnosis of AML
[8] = patients with cytogenetic abnormalities, MDS IWG criteria

Nc1ncn([C@H]2C[C@H](O)[C@@H](CO)O2)c(=O)n1 [Decitabine, 5-aza-2′-deoxycytidine]
Oral bioavailability [1]: reduced oral bioavailability | Neutrophil nadir (delayed myelotoxicity, primary toxicity) [2]: 18 to 24 days | Response by IPSS Classification (CR + PR) ([3]; High Risk): (13%) | Response by IPSS Classification (CR + PR), responders/patients ([3]; High Risk): 3/23 | Median Duration of (CR + PR + HI) response ([3]; ITT): 253 days | Median time to (CR + PR + HI) response ([3]; ITT): 44 days | Complete Response (CR) ([3]; ITT, N = 89): (9%) | Complete Response (CR), number of patients ([3]; ITT, N = 89): 8 | Hematologic Improvement (HI) ([3]; ITT, N = 89): (12%) | Hematologic Improvement (HI), number of patients ([3]; ITT, N = 89): 11 | Overall Improvement Rate (CR + PR + HI) ([3]; ITT, N = 89): (29%)** | Overall Improvement Rate (CR + PR + HI), number of patients ([3]; ITT, N = 89): 26 | Partial Response (PR) ([3]; ITT, N = 89): (8%) | Partial Response (PR), number of patients ([3]; ITT, N = 89): 7 | Overall Response Rate (CR + PR) [3, 4]: 17% | Overall Response Rate (CR + PR), number of patients [3, 4]: 15 | Hematologic Improvement (HI) [3, 5]: 12% | Overall Improvement Rate (CR + PR + HI) [3, 5]: 29% | Response by IPSS Classification (CR + PR) ([3]; Int-1): (14%) | Response by IPSS Classification (CR + PR), responders/patients ([3]; Int-1): 4/28 | Response by IPSS Classification (CR + PR) ([3]; Int-2): (21%) | Response by IPSS Classification (CR + PR), responders/patients ([3]; Int-2): 8/38 | Patients who became transfusion independent ([3]; RBC transfusion dependent at baseline): 39% | RBC and platelet transfusion status of responders ([3]; all 15 responders, in the absence of growth factors): remained or became RBC and platelet transfusion independent | Quality of Life assessment (EORTC scale) ([3]; baseline, end of each treatment cycle and post-treatment): less dyspnea, less fatigue and better physical functioning and global health status | Median time to AML or death ([3]; decitabine arm, p=0.160, ns vs SC): 340 days | Cycle by which all responders had responded ([3]; decitabine patients who responded): by the fourth cycle | Median Duration of (CR + PR) response ([3]; decitabine responders): 266 days | Median time to (CR + PR) response ([3]; decitabine responders): 89 days | Overall response rate [3, 6]: 21% | Overall response rate, responders/patients [3, 6]: 12/56 | Objective response (CR or PR) [3, 7]: 56% | Objective response (CR or PR), responders/patients [3, 7]: 5/9 | Major cytogenetic responses [3, 8]: 21% | Major cytogenetic responses, responders/patients [3, 8]: 10/48 | Minor cytogenetic response, number of patients [3, 8]: one | Patients who became transfusion dependent ([3]; transfusion independent at baseline): 15%
